Assay results published in patent EP0846119B1, “THIENOPYRIMIDINE DERIVATIVES, THEIR PRODUCTION AND USE AS ENDOTHELIN ANTAGONISTS” (Takeda Chemical Industries, Ltd., priority 1995, dated 1997).

Key:
[1] = molecular target: T1, human endothelin-A (ETA) receptors (Homo sapiens, UniProt P25101); test: Binding Test to ETA receptor expressed in an insect cell Sf9 ([125I]endothelin-1 displacement); details: Sf9 membrane fractions; [125I]endothelin-1; 25°C, 60 minutes; concentration causing PMB=50%; read-out: IC50 value: µM Human endotherin-A receptor
T1 construct: made in house; host or cells: Sf9 insect cells (membrane fractions)
T1 sequence (P25101 21-427): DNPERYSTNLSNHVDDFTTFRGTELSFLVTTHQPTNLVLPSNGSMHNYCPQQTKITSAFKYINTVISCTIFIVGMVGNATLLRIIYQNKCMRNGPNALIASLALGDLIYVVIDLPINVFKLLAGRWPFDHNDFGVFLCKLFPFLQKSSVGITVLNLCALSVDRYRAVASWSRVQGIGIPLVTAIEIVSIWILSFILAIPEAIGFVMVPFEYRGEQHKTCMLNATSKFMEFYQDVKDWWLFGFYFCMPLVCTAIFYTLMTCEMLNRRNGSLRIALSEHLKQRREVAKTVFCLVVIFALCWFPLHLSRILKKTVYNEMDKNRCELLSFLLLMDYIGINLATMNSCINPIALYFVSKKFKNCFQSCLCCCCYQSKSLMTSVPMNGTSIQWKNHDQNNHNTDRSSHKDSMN
Procedure: Binding Test to ETA receptor expressed in an insect cell Sf9:
(§1) Endothelin (ET) receptors were prepared by diluting fractions of insect cell (Sf9) membrane having human endothelin-A (ETA) receptors expressed, with an assay buffer {20 mM Tris-HCl, 2 mM EGTA (ethyleneglycol bls(2-aminoethylether) tetra acetic acid), 5 mM magnesium acetate, 0.1% BSA (bovine serum albumin), 0.03% NaN3, 0.5 mM PMSF (phenyl methyl sulfonyl fluoride), 20 µg/ml leupeptin, 4 µg/ml E-64 (products of the Peptide Institute, Japan), 1 µg/ml pepstatin, (pH 7.2)} respectively in a concentration of 1.4 µg/ml in the former case and 0.7 µg/ml in the latte case.
To 100 µl of each portion was added 5 nM[^125I] endothelin-1 (2 µl). A dimethylsulfoxide solution (3 µl) of the test compound was added thereto and incubated at 25°C for 60 minutes.
And, to determine the maximum binding amount (B0) and non-specific binding amount (NSB), lots to which a dimethyl sulfoxide solution (3 µl) or a dimethyl sulfoxide solution (3 µl) containing endothelin-1 (10^-3M) had been added, were also incubated.
These lots were supplemented with 0.05% CHAPS(3-[(3-chloroamidopropyl)dimethylammonio]-1-propanesulfonate)-assay buffer (1.5 ml), subjected to filtration through a glass fiber filter GF/F (trade name; product of Whatman Ltd. (England)), and then washed with the same buffer (1.5 ml)).
(§2) Radioactivity on the filter was counted in a gamma-counter to determine the Percent Maximum Binding (PMB) in accordance with the aforesaid calculation formula. The concentration causing PMB=50% was determined as IC50 value.

[2] = molecular target: T2, human endothelin-B (ETB) receptors (Homo sapiens, UniProt P24530); test: Binding Test to ETB receptor expressed in an insect cell Sf9 ([125I]endothelin-1 displacement); details: Sf9 membrane fractions; [125I]endothelin-1; 25°C, 60 minutes; concentration causing PMB=50%; read-out: IC50 value: µM Human endotherin-B receptor
T2 construct: made in house; host or cells: Sf9 insect cells (membrane fractions)
T2 sequence (P24530 27-442): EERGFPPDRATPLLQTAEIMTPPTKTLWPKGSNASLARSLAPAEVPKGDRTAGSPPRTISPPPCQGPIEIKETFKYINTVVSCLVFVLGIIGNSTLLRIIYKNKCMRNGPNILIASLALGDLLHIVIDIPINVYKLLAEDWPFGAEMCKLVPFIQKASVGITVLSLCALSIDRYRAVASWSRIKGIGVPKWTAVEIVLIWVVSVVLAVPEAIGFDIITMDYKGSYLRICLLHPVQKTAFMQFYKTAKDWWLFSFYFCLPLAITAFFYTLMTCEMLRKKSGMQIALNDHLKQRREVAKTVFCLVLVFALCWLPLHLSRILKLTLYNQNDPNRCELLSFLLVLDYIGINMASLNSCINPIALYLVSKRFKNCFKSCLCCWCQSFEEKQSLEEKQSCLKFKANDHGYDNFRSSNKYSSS
Procedure: Binding Test to ETB receptor expressed in an insect cell Sf9:
as §1, with “endothelin-B (ETB)” for “endothelin-A (ETA)”, “{200” for “{20”, “(ethylenegiycol bis(2-aminoethylether)” for “(ethyleneglycol bls(2-aminoethylether)”, “PMSF(phenyl” for “PMSF (phenyl”, “Institute),” for “Institute, Japan),”, “latter” for “latte”
To 100 µl of each portion was added 5 nM[^125I] endothelin-1 (2 µl). A dimethylsulfoxide solution (3 µl) of the sample was added thereto and incubated at 25°C fpr 60 minutes.
And, to determine the maximum binding amount (B0) and non-specific binding amount (NSB), lots to which a dimethyl sulfoxide solution (3 µl) or a dimethyl sulfoxide solution (3 µl) containing endothelin-1 (10^-5M) had been added, were also incubated.
These lots were supplemented with 0.05% CHAPS(3-[(3-chloroamidopropyl)dimethylammonio]-1-propanesulfonate)-assay buffer (1.5 ml), subjected to filtration through a glass fiber filter GF/F (trade name; product of Whatman Ltd. (England)), and then washed with the same buffer (1.5 ml).
as §2

Row | IC50 [1] | IC50 [2] | SMILES
1 | 0.011 µM | 0.094 µM | CCCOc1ccc(-c2sc3c(c2CNS(=O)(=O)C(C)C)c(=O)n(CC(=O)O)c(=O)n3Cc2ccccc2SC)cc1 [11(15), 2,4(1H,3H)-Dioxo-6-(4-propoxyphenyl)-1-(2-methylthiobenzyl)-5-(isopropanesulfonamidomethyl)-thieno[2,3-d]pyrimidine-3-acetic acid]
2 | 0.018 µM | 0.22 µM | CCCOc1ccc(-c2sc3c(c2CNS(C)(=O)=O)c(=O)n(CC(=O)O)c(=O)n3Cc2ccccc2SC)cc1 [11(7), 2,4(1H,3H)-Dioxo-6-(4-propoxyphenyl)-1-(2-methylthiobenzyl)-5-(methanesulfonamidomethyl)-thieno[2,3-d]pyrimidine-3-acetic acid]
3 | 0.022 µM | 0.047 µM | CCCS(=O)(=O)NCc1c(-c2ccc(OCOC)cc2)sc2c1c(=O)n(CC(=O)O)c(=O)n2Cc1ccccc1SC [11(17)]
4 | 0.0066 µM | 0.09 µM | COCOc1ccc(-c2sc3c(c2CNS(=O)(=O)C(C)C)c(=O)n(CC(=O)O)c(=O)n3Cc2ccccc2SC)cc1 [11(11), 2,4(1H,3H)-Dioxo-6-(4-methoxymethoxyphenyl)-1-(2-methylthiobenzyl)-5-(isopropanesulfonamidomethyl)thieno[2,3-d]pyrimidine-3-acetic acid]
5 | 0.015 µM | 0.11 µM | CCCOc1ccc(-c2sc3c(c2CNS(=O)(=O)CC)c(=O)n(CC(=O)O)c(=O)n3Cc2ccccc2SC)cc1 [11(9), 2,4(1H,3H)-Dioxo-6-(4-propoxyphenyl)-1-(2-methylthiobenzyl)-5-(ethanesulfonamidomethyl)-thieno[2,3-d]pyrimidine-3-acetic acid]
